Assay: xn = mol fraction of the nth substance listed

C1COCO1 + CCCO
303.15 K, 101 kPa
Conditions | viscosity [mPa·s]
x1 = 0.08269 | 1.258
x1 = 0.1686 | 1.067
x1 = 0.258 | 0.9345
x1 = 0.351 | 0.8208
x1 = 0.4479 | 0.7339
x1 = 0.5489 | 0.6454
x1 = 0.6543 | 0.592
x1 = 0.7644 | 0.5684
x1 = 0.8795 | 0.5564

C=CCN(CC=C)C(=O)C(Cl)Cl + CC(C)=O
viscosity [mPa·s], 101 kPa
Conditions | x1 = 0.006314 | x1 = 0.01189 | x1 = 0.01711 | x1 = 0.02832 | x1 = 0.03651 | x1 = 0.04464 | x1 = 0.05006 | x1 = 0.05495
293.15 K | 0.3429 | 0.3501 | 0.3617 | 0.3719 | 0.3878 | 0.3997 | 0.4079 | 0.4157
298.15 K | 0.3335 | 0.3358 | 0.3476 | 0.3589 | 0.3712 | 0.3822 | 0.3905 | 0.3989
303.15 K | 0.3189 | 0.3227 | 0.3309 | 0.3424 | 0.3542 | 0.3646 | 0.3722 | 0.3793
308.15 K | 0.3041 | 0.3086 | 0.3185 | 0.3268 | 0.3372 | 0.3478 | 0.3553 | 0.3628
313.15 K | 0.2944 | 0.296 | 0.3075 | 0.3129 | 0.3247 | 0.3335 | 0.3423 | 0.3443

CC(=O)c1ccccc1 + CCCC(C)O
298.15 K, 101 kPa
Conditions | viscosity [mPa·s]
x1 = 0.2502 | 1.875
x1 = 0.7547 | 1.605

CCCCCCCCC + CCCCCCCCCCCCCCCC
298.15 K, 101.33 kPa
Conditions | viscosity [mPa·s]
x1 = 0.1105 | 2.698
x1 = 0.2002 | 2.416
x1 = 0.3173 | 2.072
x1 = 0.4054 | 1.832
x1 = 0.5056 | 1.571
x1 = 0.5795 | 1.404
x1 = 0.7077 | 1.152
x1 = 0.8024 | 0.9655
x1 = 0.8988 | 0.8177

FCC(F)(F)F + FCF
viscosity [mPa·s], 101 kPa
Conditions | x1 = 0.245 | x1 = 0.518 | x1 = 0.756
298.15 K | 0.1241 | 0.1379 | 0.1592
313.15 K | 0.1031 | 0.1152 | 0.129

CC(=O)c1ccccc1 + ClCCCl
298.15 K, 101 kPa
Conditions | viscosity [mPa·s]
x2 = 0.1118 | 1.531
x2 = 0.3581 | 1.283
x2 = 0.6942 | 0.993

O=N[O-].[Na+] + O
viscosity [mPa·s]
Conditions | x1 = 0.0182 | x1 = 0.0368 | x1 = 0.0558 | x1 = 0.0753 | x1 = 0.0989 | x2 = 0.85 | x2 = 0.87 | x2 = 0.89 | x2 = 0.92 | x2 = 0.94
293.15 K, 101.33 kPa | – | – | – | – | – | 2.834 | 2.248 | 1.903 | 1.494 | 1.374
298.15 K, 101 kPa | 0.97 | 1.09 | 1.24 | 1.43 | 1.73 | – | – | – | – | –
313.15 K, 101 kPa | 0.72 | 0.82 | 0.93 | 1.05 | 1.26 | – | – | – | – | –

C1COCO1 + CC(=O)O
298.15 K, 101 kPa
Conditions | viscosity [mPa·s]
x1 = 0.0826 | 1.097
x1 = 0.1685 | 1.076
x1 = 0.2578 | 1.042
x1 = 0.3508 | 0.996
x1 = 0.4477 | 0.9442
x1 = 0.5487 | 0.883
x1 = 0.6541 | 0.8162
x1 = 0.7643 | 0.7415
x1 = 0.8795 | 0.6626

FCC(F)(F)F + OCCOCCOCCO
viscosity [mPa·s], 101.32 kPa
Conditions | x2 = 0.732 | x2 = 0.733 | x2 = 0.79 | x2 = 0.791 | x2 = 0.901 | x2 = 0.903
293.15 K | 11.3 | – | 15.8 | – | 28.9 | –
313.15 K | – | 5.52 | – | 7.14 | – | 11.2

CC(=O)c1ccccc1 + c1ccccc1
298.15 K, 101 kPa
Conditions | viscosity [mPa·s]
x1 = 0.5 | 0.942
x1 = 0.75 | 1.27
